Bounds are passed on as bounds.

Data on 16 molecules can be found in patent US20230000842A1, “METHODS OF TREATING CARTILAGE DISORDERS THROUGH INHIBITION OF CLK AND DYRK” (SAMUMED, LLC, priority 2019, published 2023).

The target of one assay is CLK2 kinase (Homo sapiens, UniProt P49760). Kind of assay: CLK2 kinase activity assay (Z-lyte FRET).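 Also: FRET read-out as coumarin to fluorescein emission ratio, unphosphorylated peptide as 0% and phosphorylated peptide as 100% controls, duplicate reactions, non-linear regression fit of dose-response curves.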 The class given is biochemical. The note with it: Z-lyte Ser/Thr 6 peptide, 60 μM ATP, 1 h at room temperature.
Sequence of CLK2 kinase (P49760 whole entry): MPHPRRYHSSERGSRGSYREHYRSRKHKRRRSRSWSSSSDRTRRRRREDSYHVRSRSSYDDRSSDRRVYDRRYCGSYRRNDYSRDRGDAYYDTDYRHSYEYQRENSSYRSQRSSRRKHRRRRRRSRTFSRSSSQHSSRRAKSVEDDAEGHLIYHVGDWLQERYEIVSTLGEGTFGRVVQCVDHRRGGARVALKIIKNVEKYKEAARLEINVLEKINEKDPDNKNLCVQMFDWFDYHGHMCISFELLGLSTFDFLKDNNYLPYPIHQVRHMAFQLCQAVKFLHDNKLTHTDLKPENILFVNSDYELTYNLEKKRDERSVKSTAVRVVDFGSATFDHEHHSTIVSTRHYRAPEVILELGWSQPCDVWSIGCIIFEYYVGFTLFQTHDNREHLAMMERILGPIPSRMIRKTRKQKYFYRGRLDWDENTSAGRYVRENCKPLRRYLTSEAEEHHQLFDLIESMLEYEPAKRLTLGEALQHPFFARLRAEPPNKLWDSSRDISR
In the next assay the target is CLK3 kinase (Homo sapiens, UniProt P49761). Put plainly: CLK3 kinase activity assay (Z-lyte FRET).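 Also: kinase activity read as coumarin/fluorescein emission ratio by FRET, unphosphorylated peptide as 0% and phosphorylated peptide as 100% control, values from non-linear regression of dose-response curves.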 The class given is biochemical. The note with it: Z-lyte Ser/Thr 18 peptide, 156 μM ATP, 1 h at room temperature.
Sequence of CLK3 kinase (P49761 whole entry): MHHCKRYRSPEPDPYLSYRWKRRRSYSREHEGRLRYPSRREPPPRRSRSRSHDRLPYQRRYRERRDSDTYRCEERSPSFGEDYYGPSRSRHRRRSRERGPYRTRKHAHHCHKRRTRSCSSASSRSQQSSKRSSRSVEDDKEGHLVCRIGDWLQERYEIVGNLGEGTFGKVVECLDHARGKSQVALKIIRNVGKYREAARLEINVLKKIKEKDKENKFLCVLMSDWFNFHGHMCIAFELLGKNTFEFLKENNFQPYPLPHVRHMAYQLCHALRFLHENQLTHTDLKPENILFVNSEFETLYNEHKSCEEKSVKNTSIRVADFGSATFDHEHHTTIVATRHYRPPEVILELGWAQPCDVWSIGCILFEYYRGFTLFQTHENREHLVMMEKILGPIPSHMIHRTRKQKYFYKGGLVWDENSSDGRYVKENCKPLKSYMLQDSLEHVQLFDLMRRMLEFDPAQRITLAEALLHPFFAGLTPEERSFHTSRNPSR
For assay [1], the system named is primary human mesenchymal stem cells (hMSCs). Put plainly: Chondrogenesis screening using primary human mesenchymal stem cells. The class given is cell-based. To be noted: Homo sapiens, Mesenchymal stem cells, hMSC chondrogenesis; for Emax: maximum activity relative to TGF-β3 (10 ng/mL) positive control, read-out: Max. Activity as % TGF-β3 activity; for EC50: concentration required to induce 50% levels of chondrogenesis with TGF-β3 as positive control, read-out: Conc (nM) of 50% TGF-β3 activity. The method in brief:
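Derived values are EC50 for 50% chondrogenesis, maximal activity and the dose giving it. These come from nodule area in passage 3–6 primary hMSCs, expressed as fold change over the mean of 3 same-plate DMSO wells, 2–3 replicates per concentration. TGF-β3 served as positive control.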

The subject of assay [2] is MMP-3 levels in supernatant of chondrocytes stimulated with IL1-β. Put plainly: Chondrocyte protection assay compound screening (MMP-3 LANCE Ultra). To be noted: Homo sapiens, Chondrocyte, IL1-β 10 ng/mL overnight, 11-point curves from 3 μM to 0.05 nM; for Emax: read-out: Maximum % Inhibition. The class given is cell-based, human. The procedure, abridged:
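Primary human chondrocytes (passage 2–5) in differentiation medium were stimulated with 10 ng/mL IL1-β for an overnight incubation at 37 °C. MMP-3 in 1:7-diluted supernatant was read by TR-FRET immunoassay against a standard curve, normalised to IL1-β-stimulated wells; EC50 and maximum % inhibition came from nonlinear regression.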

Assay [3] concerns Wnt pathway activity (SW480 colon carcinoma cells stably expressing the Sp5-Luc reporter). Put plainly: Wnt pathway activity screening assay (Sp5-Luc reporter gene assay). To be noted: Homo sapiens.
[4] abbreviates: SW480, Table 4, SW480 cells stably expressing Sp5-Luc reporter, 10-point dose-response from 10 μM, 36 to 48 hours.

Description for CLK2 kinase: This is a non-radioactive assay using fluorescence resonance energy transfer (FRET) between coumarin and fluorescein to detect kinase activity which is represented as a ratio of coumarin emission/fluorescein emission.
The mixture was allowed to incubate with the representative compounds for one hour at room temperature. All reactions were performed in duplicate. Unphosphorylated (“0% Control”) and phosphorylated (“100% control”) forms of Ser/Thr 6 served as control reactions. Additionally, an 11-point dose-response curve of Staurosporine (1 μM top) was run to serve as a positive compound control.
After incubation, Development Reagent A was diluted in Development Buffer then added to the reaction and allowed to further incubate for one hour at room temperature.
Dose-response curves were generated and inhibitory concentration (IC50) values were calculated using non-linear regression curve fit in the Dotmatics' Studies Software (Bishops Stortford, UK).

As for `CC(C)OCCCNC(=O)c1n[nH]c2ccc(-c3cccnc3)cc12` [compound 58], the EC50 at CLK2 kinase turned out to be 10 nM; at CLK3 kinase it was 9840 nM; in assay [2], 10.8 nM; in assay [3] (setting [4]) it was 464 nM. Also, the Emax in assay [1] stood at 92.5%; in assay [2], 61.1%.
As for `O=C(Nc1cccnc1)c1n[nH]c2ccc(-c3cncc(CN4CC5CC(C4)O5)c3)cc12` [compound 101], the EC50 on CLK2 kinase is 1 nM; at CLK3 kinase, 44 nM; in assay [1] it was 900 nM; in assay [2] it was at least 3000 nM; in assay [3] (SW480) it was 67 nM. The Emax was 121% in assay [1] and 45.7% in assay [2].
With `CC(C)CC(=O)Nc1cncc(-c2cc3c(-c4nc5c(-c6cc(F)cc(OCCN7CCCC7)c6)cncc5[nH]4)n[nH]c3cn2)c1` [compound 298], the EC50 on CLK2 kinase is 1 nM; at CLK3 kinase, 13 nM; in assay [2] it was at least 3000 nM; in assay [3] (setting [4]), over 10000 nM. The values for the Emax in assay [1] and in assay [2] were 20.3% and 23.2%, respectively.
Consider `O=C(Nc1cncc(-c2cnc3[nH]nc(-c4cc5c(-c6ccncc6)cncc5[nH]4)c3c2)c1)C1CCC1` [compound 394], for which the EC50 on CLK2 kinase is 3 nM; at CLK3 kinase, 69 nM; in assay [2], 17.9 nM; in assay [3] (setting [4]) it was over 10000 nM. The Emax came to 43.5% in assay [1] and 90.4% in assay [2].
On to `CN1CCCn2cc(nn2)-c2nccc3[nH]c(nc23)-c2n[nH]c3ccc(cc23)-c2cncc(c2)C1` [compound 621], for which the EC50 was 3 nM on CLK2 kinase; 26 nM on CLK3 kinase; 10 nM in assay [1]; at least 3780 nM in assay [2]; 338 nM in assay [3] (setting [4]). For the same molecule, the Emax stood at 181% in assay [1] and 46.5% in assay [2].
Take `CC(C)C(=O)Nc1cncc(-c2ccc3[nH]nc(-c4nc5c(-c6ccccc6F)cncc5[nH]4)c3c2)c1` [compound 173]: the EC50 at CLK2 kinase was 4 nM; on CLK3 kinase it was 24 nM; in assay [1], 30 nM; in assay [2], at least 3000 nM; in assay [3] (setting [4]) it was 4 nM. In addition, the Emax amounted to 102% in assay [1] and 90.2% in assay [2].
For the molecule `CC(C)Oc1cncc(C(=O)Nc2c[nH]nc2C(=O)Nc2ccc(OC3CCN(C)CC3)nc2)c1` [compound 10], the EC50 was 6 nM on CLK2 kinase; 1780 nM on CLK3 kinase; 2700 nM in assay [1]; 1.5 nM in assay [2]; 90.3 nM in assay [3] (setting [4]). Further, the Emax came to 140% in assay [1] and 46.9% in assay [2].
`CCNCc1cncc(-c2cc3c(-c4cc5c(-c6cccnc6)cncc5[nH]4)n[nH]c3cn2)c1` [compound 367]: the EC50 at CLK2 kinase is 2 nM; at CLK3 kinase, 214 nM; in assay [1], 10 nM; in assay [2] it was at least 3000 nM; in assay [3] (setting [4]), 3730 nM. Further, the Emax in assay [1] was 67.6%; in assay [2], 75.7%.
On to `CN1CCN(c2nccc3[nH]c(-c4n[nH]cc4/C=C/c4cncc(F)c4)nc23)CC1` [compound 25], for which the EC50 at CLK2 kinase is 1 nM; at CLK3 kinase it was 326 nM; in assay [2], at least 3000 nM; in assay [3] (setting [4]) it was 325 nM. Moreover, the values for the Emax in assay [1] and in assay [2] were 39% and 91.9%, respectively.
Regarding `CN1CCN(c2cc(Nc3ncc4c(-c5ccc6ncccc6c5)c[nH]c4n3)ccn2)CC1` [compound 623], the EC50 at CLK2 kinase was 2 nM; on CLK3 kinase, 10 nM; in assay [1], 30 nM; in assay [2] it was at least 9980 nM; in assay [3] (setting [4]), 284 nM. Also, the Emax came to 73.4% in assay [1] and 89.5% in assay [2].
On to `CC(C)Nc1cncc(-c2ccc3[nH]nc(-c4nc5c(-c6cc(F)cc(NCCN(C)C)c6)cncc5[nH]4)c3n2)c1` [compound 284], for which the EC50 is 1 nM on CLK2 kinase; 25 nM on CLK3 kinase; 300 nM in assay [1]; at least 3000 nM in assay [2]; 1660 nM in assay [3] (setting [4]). The Emax in assay [1] was 96.8%; in assay [2], 32.9%.
For `Cn1cc(-c2cc3c(C(=O)Nc4ccc(CN5CCCC5)cc4)n[nH]c3cc2F)cn1` [compound 107], the EC50 is 1 nM at CLK2 kinase, 90 nM on CLK3 kinase, at least 3000 nM in assay [2] and 242 nM in assay [3] (setting [4]). The Emax in assay [1] is 27.4%; in assay [2], 22.9%.
Consider `O=C1COc2cccc(c2)-c2cncc3[nH]c(nc23)-c2n[nH]c3ccc(cc23)-c2cncc(c2)N1` [compound 620], for which the EC50 at CLK2 kinase amounted to 3 nM; at CLK3 kinase it was 16 nM; in assay [1], 100 nM; in assay [2], 37.4 nM; in assay [3] (setting [4]), 86.8 nM. For the same molecule, the Emax in assay [1] turned out to be 185%; in assay [2] it was 37.1%.
`CN1CCC(n2cc(NC(=O)c3n[nH]c4ccc(-c5cnn(C)c5)cc34)cn2)CC1` [compound 106]: the EC50 on CLK2 kinase came out at 1 nM; at CLK3 kinase, 55 nM; in assay [2], 818 nM; in assay [3] (setting [4]) it was 79 nM. Besides, the figures for the Emax in assay [1] and in assay [2] were 23.6% and 100%, respectively.
As for `O=C(Nc1c[nH]nc1C(=O)Nc1ccc(N2CCC(F)(F)C2)nc1)c1cncc(OC2CCNCC2)c1` [compound 12], the EC50 worked out at 6 nM on CLK2 kinase, 6020 nM on CLK3 kinase, 280 nM in assay [2] and 2220 nM in assay [3] (setting [4]). The Emax amounted to 75.2% in assay [1] and 88.7% in assay [2].
For `CN(C)Cc1cncc(-c2cnc3[nH]nc(-c4nc5c(-c6cccs6)cncc5[nH]4)c3c2)c1` [compound 260], the EC50 at CLK2 kinase is 1 nM; on CLK3 kinase, 128 nM; in assay [1], 30 nM; in assay [2] it was at least 3000 nM; in assay [3] (setting [4]), 48 nM. In assay [1], the Emax was found to be 146%.
